Assay results as given in PMC3944389, “Differential Neuroprotective Effects of 5′-Deoxy-5′-Methylthioadenosine” (PLoS ONE, 2014).

Key:
[1] = test system: rat mixed cultures of neurons and astrocytes; assay: Oxygen-glucose deprivation (OGD) with iodoacetate, LDH release; assay type: cell-based; settings: IAA 20 and 50 µM; MTA 10 µM or 100 µM, APV 100 µM
Procedure: (§1) Finally, to prepare neuron-astrocyte co-cultures, neurons were resuspended in B27 Neurobasal medium plus 10% of foetal bovine serum (FBS) and then seeded onto a monolayer of astrocytes in 24-well plates at a density of 1–2×10^5 cells per well, the astrocytes having been prepared beforehand, as described elsewhere. One day later, the medium was replaced with B27-Neurobasal plus 10% FBS medium, and the cells were maintained at 37°C in 5% CO2. The cultures were used 8–9 days after plating. Neurons and astrocytes were identified with antibodies against microtubule-associated protein-2 and GFAP, respectively.
Ischemic damage was induced by incubating cell cultures for 1 h in a hyperbaric chamber in a nitrogen-saturated buffer containing: 130 mM NaCl, 5.4 mM KCl, 0.1323 mM CaCl2, 0.26 mM NaHCO3, 0.8 mM MgCl2, 1.18 mM NaH2PO4, 10 mM sucrose (OGD plus sucrose) and iodoacetate (IAA, 20 or 50 µM). IAA is a glycolytic blocker typically used in OGD experiments to simulate ischemic conditions. After the insult, the cells were incubated under normoxic conditions for an additional 24 h in the presence of glucose but in the absence of IAA. Distinct reagents were added during ischemia to evaluate their neuroprotective activity by assessing cell viability and cell death in the cultures.
The cell status was assessed by measuring the release of lactate dehydrogenase (LDH) from dead cells. LDH was measured spectrophotometrically at 490 nm on a 96-well plate reader using the Cytotox 96 Kit according to the manufacturer's instructions (Promega). The LDH release was defined by the ratio of LDH released to the total LDH present in the cell at the beginning of the treatment.

[2] = Parallel artificial membrane permeability assay (PAMPA), BBB model, passive diffusion; assay type: in vitro ADME
Procedure: The PAMPA assay was used to determine the capacity of compounds to cross a blood brain barrier (BBB) model by passive diffusion, measuring the effective permeability of the compounds at an initial concentration of 200 µM. The buffer solution was prepared from a concentrated commercial solution (Pion, Billerica, MA, US) according to the manufacturer's instructions and the pH was adjusted to 7.4 with 0.5 M NaOH. The compound of interest was dissolved in the buffer solution (200 µM), the PAMPA sandwich was separated and the donor well was filled with 195 µL of the compound of interest. The acceptor plate and donor plate were brought together, with the underside of the membrane in contact with the buffer. An 4 µL aliquot of the phospholipid mixture (20 mg/ml) in dodecane was added to the filter of each well, and then 200 µL of buffer solution was added to each acceptor well. The plate was covered and incubated for 4 h at RT in a saturated humidity atmosphere with agitation and with 25 µm of an unstirred water layer in the Gut-Box (Pion). After 4 h, a 150 µL/well sample from the donor plate and a 150 µL/well sample from the acceptor plate were transferred to HPLC vials. Then, 100 µL from acceptor well, 5 µL from the donor well and 5 µL from the t0 samples were injected into an HPLC reverse-phase symmetry C18 column (150 mm×4.6 mm×5 µm, 100 Å; Waters). Transport was confirmed by HPLC mass spectrometry and matrix-assisted laser desorption/ionization time-of-flight (MALDI-TOF) spectrometry to ensure the compound had maintained its integrity. The phospholipid mixture used was a porcine polar brain lipid extract composed of 12.6% phosphatidylcholine (PC), 33.1% phosphatidylethanolamine (PE), 18.5% phosphatidylserine (PS), 4.1% phosphatidylinositol (PI), 0.8% phosphatidic acid and 30.9% of other compounds.

[3] = test system: rat mixed astrocyte-neuron cultures; assay: NMDA-induced caspase 3 activation in mixed astrocyte-neuron cultures; assay type: cell-based; settings: pre- or co-treatment; MTA 250 µM, MK-801 10 µM; 300 µM NMDA
Procedure: as §1
To assay N-methyl–D-aspartate (NMDA) excitotoxicity, primary cultures were seeded in 24-well plates at 15×10^4 cells/well, cultured for 7 days in vitro, and treated for different times with the vehicle alone (dimethyl sulfoxide (DMSO) 1%), NMDA (300 µM), NMDA (300 µM) + MTA (250 µM) or NMDA (300 µM) + MK-801, a NMDA receptor antagonist (10 µM). […] Caspase 3 activity was measured in these lysates one hour after the NMDA addition.
Cortical neurons, or mixed cortical neurons and glia, were seeded in poly-L-lysine-coated 6-well culture plates during 7 days in vitro before start the set of experiments. […] The extracts were then centrifuged at 5,000×g for 10 min at 4°C and the protein content was determined by the BCA protein assay. […]

[4] = test system: C57Bl mice treated with MPTP; assay: MPTP mouse model of Parkinson's disease, stereological counting of TH+ neurons; assay type: in vivo; settings: MTA 30 mg/kg, MSX-3 10 mg/kg (legend: 9 mg/kg), alone or combined; MPTP 30 mg/kg i.p. 5 days
Procedure: 12-week-old male C57Bl mice from Charles River (Barcelona, Spain) were injected i.p. with 30 mg/kg 1-methyl-4-phenyl-1,2,3,6-tetrahydropyridine (MPTP, Sigma-Aldrich) on five consecutive days. Subsequently, MTA (30 mg/kg) and/or the A2A adenosine receptor (A2AR, 10 mg/kg) antagonist, MSX-3 (Sigma-Aldrich), was administered one day before starting MPTP treatment and 1 h after each MPTP injection (n = 6 in each experimental group). We used mice in the MPTP model because rats are resistant to systemic MPTP administration and thus, the rat MPTP model requires stereotaxic MPTP injection directly into the nigrostriatal fibers. […]
The reference volume was calculated according to Cavalieri principles from images obtained with a 2× objective using a point count array. The cross-sectional area of the nucleus was measured and the reference volume (Vr) for the entire nucleus was estimated using the following equation: [drawing 1] where T is the thickness of the sections, a/p is the area of each point and Pi is the number of points that landed within the area. The region of interest to estimate the area was outlined at low magnification (4×), and the number of labeled neurons was calculated under 100× magnification (with oil immersion) using randomized meander sampling and the optical dissector methods. […]

[5] = test system: co-culture of bovine-brain endothelial cells (BBECs) and newborn rat astrocytes; assay: In vitro cell model of transport across the BBB; assay type: in vitro ADME
Procedure: A in vitro cell model of BBB permeability was established using a co-culture of bovine-brain endothelial cells (BBECs) and newborn rat astrocytes. The cells were first cultured in 24-well (Transwell^R) permeable supports with a surface area of 0.33 cm^2 and a pore size of 0.4 µm (Corning), the upper surface of which was coated with collagen type IV and fibronectin. The inserts were then placed upside down in a large petri dish, and 40 µL of a suspension (containing approximately 45,000 astrocytes) was placed on the bottom of each filter. The petri dish was incubated at 37°C for 1 h, and 40 µL of fresh DMEM+S was added to the bottom of each filter every 15 min. The inserts were then transferred back to the plate and incubated at 37°C in 5% CO2 for 3 d. Then, 2 h before seeding the BBECs, the medium was replaced by DMEM+S supplemented with 125 µg/mL heparin and 2 h later, the cells were seeded onto the inserts (45,000 cells per filter). The plate was incubated at 37°C in 5% CO2 for 3 more days, after which the medium was replaced by DMEM+S supplemented with cyclic adenosine monophosphate (cAMP) and RO-20-1724, and kept at 37°C in 5% CO2. On day 8 of the co-culture, the transendothelial electrical resistance (TEER) was measured to determine whether the system was ready for transport studies. To validate the maturity of the model, permeability assays with lucifer yellow (LY) were performed in parallel as a marker of the integrity of the in vitro barrier. During the permeability assay, the samples were co-incubated with LY (20 µM) to assess the integrity of the cellular monolayer during the assay.

## N[C@H](CCCP(=O)(O)O)C(=O)O [APV, (2R)-amino-5-phosphonovaleric acid, reference compound]
[1]
  protection against OGD (cell death, LDH release): similar

## NC(=O)N1c2ccccc2C=Cc2ccccc21 [Carbamazepine]
[2]; 200 µM, pH 7.4, 4 h at RT
  % Membrane retention: 0.5%
[2]; 200 µM, pH 7.4, 4 h at RT, read-out: Pe x 10^−6
  Papp at 4 h, 200 µM: 11.5 ×10⁻⁶ cm/s

## C[C@]12N[C@H](Cc3ccccc31)c1ccccc12 [MK-801, reference compound]
[3]
  caspase 3 activation induced by NMDA: reverted to basal levels

## C#CCn1c(=O)c2c(nc(/C=C/c3cccc(OC)c3)n2C)n(CCCOP(=O)([O-])[O-])c1=O.[Na+].[Na+] [MSX-3, reference compound]
[4]
  neuroprotection: TH+ neurons in the substantia nigra: not statistically significant

## CC(C)NCC(O)COc1cccc2ccccc12 (stereo not drawn) [Propanolol, propranolol]
[2]
  Membrane retention: 30%
[2]; 200 µM, pH 7.4, 4 h at RT
  % Membrane retention: 30.2%
  Pe x 10^−6 (cm/s): 10.3 x 10^−6 cm/s

## Apo E: control compound in the in vitro cell model of BBB
[5]
  Pe x 10^−6 (cm/s): 2.2 x 10^−6 cm/s
  effective permeability coefficient (Pe): 2.2 ×10⁻⁶ cm/s

## Transferrin: control compound in the in vitro cell model of BBB
[5]
  Pe x 10^−6 (cm/s): 8.2 x 10^−6 cm/s
  effective permeability coefficient (Pe): 8.2 ×10⁻⁶ cm/s
